Assay results from patent EP1921072A1, “1,2,3-Triazole derivatives as cannabinoid-receptor modulators” (Laboratorios del Dr. Esteve S.A., priority 2006, dated 2008).

Each molecule was assayed against T1, CB1-Receptor (Homo sapiens, UniProt P21554) (assay: In-vitro determination of affinity to CB1 receptor (radioligand [3H]-CP55940 binding)). Conditions: compound at 10^-6 M, transfected human CB1 receptors.
T1 construct: purchased Receptor Biology, Inc
T1 sequence (P21554 whole entry): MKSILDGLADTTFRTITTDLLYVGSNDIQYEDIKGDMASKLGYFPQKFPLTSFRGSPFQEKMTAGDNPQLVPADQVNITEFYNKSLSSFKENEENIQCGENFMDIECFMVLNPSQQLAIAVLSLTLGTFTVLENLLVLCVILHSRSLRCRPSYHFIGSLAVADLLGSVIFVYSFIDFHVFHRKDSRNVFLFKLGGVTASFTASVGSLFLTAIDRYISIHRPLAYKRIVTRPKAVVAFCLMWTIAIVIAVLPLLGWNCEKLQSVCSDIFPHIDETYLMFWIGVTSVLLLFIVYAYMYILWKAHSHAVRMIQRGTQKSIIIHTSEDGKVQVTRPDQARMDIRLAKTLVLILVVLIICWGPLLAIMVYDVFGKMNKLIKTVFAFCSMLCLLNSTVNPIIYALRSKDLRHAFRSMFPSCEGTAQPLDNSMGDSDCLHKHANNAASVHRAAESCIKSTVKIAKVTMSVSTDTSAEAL
Method: The in-vitro determination of the affinity of the inventive substituted pyrazoline compounds to CB1/CB2-receptors is carried out as described in the publication of Ruth A. Ross, Heather C. Brockie et al., "Agonist-inverse agonist characterization at CB1 and CB2 cannabinoid receptors of L-759633, L759656 and AM630", British Journal of Pharmacology, 126, 665-672, (1999), whereby the transfected human CB1 and CB2 receptors of Receptor Biology, Inc. are used. The radioligand used for both receptors is [^3H]-CP55940. The respective parts of the description are hereby incorporated by reference and forms part of the present disclosure.
The affinity of the inventive substituted pyrazoline compounds to CB1/CB2 receptors was determined as described above.
For `CCCCCn1nc(-c2ccccc2)c(-c2ccc(Cl)cc2)n1` [Compound 10a, 4-(p-Chlorophenyl)-2-pentyl-5-phenyl-2H-[1,2,3]triazole], the inhibition at 1 µM was 22.8%. Work on `CCCCCn1nnc(-c2ccccc2)c1-c1ccc(Cl)cc1` [Compound 10c, 5-(p-Chlorophenyl)-1-pentyl-4-phenyl-1H-[1,2,3]triazole] yielded an inhibition at 1 µM of 21.1%. In the case of `CCCCCn1nc(-c2ccc(C)cc2)c(-c2ccc(Cl)cc2Cl)n1` [Compound 11a, 4-(2,4-Dichlorophenyl)-2-pentyl-5-p-tolyl-2H-[1,2,3]triazole], the inhibition at 1 µM is reported as 29.8%. `Clc1ccc(-c2nn(Cc3ccc(Br)cc3)nc2-c2ccccc2)cc1` [Compound 13a, 2-(p-Bromobenzyl)-4-(p-chlorophenyl)-5-phenyl-2H-[1,2,3]triazole] was tested, and the inhibition at 1 µM was 45.6%. `Clc1ccc(-c2nnn(Cc3ccccc3)c2-c2ccccc2)cc1` [Compound 14b, 1-Benzyl-4-(p-chlorophenyl)-5-phenyl-1H-[1,2,3]triazole] was tested, and the inhibition at 1 µM was 24.6%. Molecule `Fc1cc(Br)ccc1-c1cnn(Cc2ccccc2)n1` [Compound 15a, 2-Benzyl-4-(4-bromo-2-fluorophenyl)-2H-[1,2,3]triazole] has an inhibition at 1 µM of 26.6%. Work on `Clc1ccc(-c2nn(C3C4CC5CC(C4)CC3C5)nc2-c2ccccc2)cc1` (stereo not shown) [Compound 19a, 2-Adamantyl-4-(p-chlorophenyl)-5-phenyl-2H-[1,2,3]triazole] yielded an inhibition at 1 µM of 23.1%.
